# Measured values taken from article PMC6222544, “Fragment-Based Lead Generation of 5-Phenyl-1H-pyrazole-3-carboxamide Derivatives as Leads for Potent Factor Xia Inhibitors” (Molecules : A Journal of Synthetic Chemistry and Natural …, 2018).
# Where two headings read alike, the source gives them in different places.
# How the values were obtained:
# [1] = biological target: FXIa; conditions: representative FXIa inhibitors, Figure 1; cited from earlier work
# [2] = tested on: rabbit plasma; experiment: aPTT in vitro coagulation assay; format: biochemical; conditions: incubated 3 min at 37 °C
# Procedure: A commercially available automatic Coagulation analyzer (Steellex Science Instrument Co., Ltd., Beijing, China) was employed to measure aPTT. The clotting times were also measured using the instrument itself, in accordance with the manufacturer’s instructions. Increasing concentrations of inhibitor or solvent were added to rabbit (Beijing Longan Experimental Animal Breeding Center, SCXK(Jing)2016-0006, Beijing, China) plasma and incubated for 3 min at 37 °C. APTT was determined by automatic Coagulation analyzer.
# [3] = biological target: T1, human FXIa (Homo sapiens, UniProt P03951); experiment: Inhibition of FXIa in vitro (chromogenic substrate assay); format: biochemical
# T1 construct: purchased Haematologic Technologies, Essex Junction, VT, USA
# Procedure: The negative controlwas composed of the same mixed solutions except replacing test compound with DMSO. […] The IC50 was calculated by IBM SPSS Statistics 22.0 (IBM Inc., North Castle, NY, USA) and the Probit function in it. IC50 values were converted to Ki values by the followingrelationship:Ki = IC50/(1 + [S]/Km)
# [4] = human FXIa, chromogenic substrate BIOPHEN CS-21(66), 37 °C, pH 7.4, Ki = IC50/(1 + [S]/Km), read-out: Ki
# T1 sequence (P03951 388-625 limits assumed): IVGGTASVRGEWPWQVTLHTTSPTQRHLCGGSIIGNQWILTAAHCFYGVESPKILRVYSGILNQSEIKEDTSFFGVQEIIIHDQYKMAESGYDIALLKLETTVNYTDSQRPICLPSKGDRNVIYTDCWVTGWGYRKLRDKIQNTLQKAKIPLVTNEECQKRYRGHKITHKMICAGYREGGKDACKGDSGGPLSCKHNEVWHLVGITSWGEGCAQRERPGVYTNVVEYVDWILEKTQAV
# T1 sequence (P03951 19-387 partner limits assumed): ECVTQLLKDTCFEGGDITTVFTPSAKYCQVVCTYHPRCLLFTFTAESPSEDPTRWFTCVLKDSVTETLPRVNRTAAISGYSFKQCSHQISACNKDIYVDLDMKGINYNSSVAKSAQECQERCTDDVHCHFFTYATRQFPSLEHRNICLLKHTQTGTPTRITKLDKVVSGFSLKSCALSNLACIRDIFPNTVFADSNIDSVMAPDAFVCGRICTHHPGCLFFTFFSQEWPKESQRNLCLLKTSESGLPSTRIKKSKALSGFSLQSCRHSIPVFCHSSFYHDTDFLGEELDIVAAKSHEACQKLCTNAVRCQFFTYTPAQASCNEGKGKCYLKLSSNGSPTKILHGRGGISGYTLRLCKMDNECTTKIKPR
"Ki ([3]; Table 1 values, read-out: FXIa inhibitory potency (Ki))","Ki [3, 4]",melting point,Structure (SMILES),Ki [1],1.5× aPTT (μM) (Rabbit) [2]
–,–,–,COC1CCN(c2cccc3c2CCN(C(=O)c2cc(-c4cccc(Cl)c4)[nH]n2)[C@@H]3C(=O)Nc2ccc(C(=O)O)cc2)CC1 [Compound 2],18.4 nM,–
–,–,–,"CC1CC1C(=O)Nc1ccc(C[C@H](NC(=O)c2cc(-c3cccc(Cl)c3F)[nH]n2)C(=O)Nc2ccc3[nH]c(C(=O)O)cc3c2)cc1 (stereo partly drawn) [Compound 7za, 5-((2S)-2-(5-(3-Chloro-2-fluorophenyl)-1H-pyrazole-3-carboxamido)-3-(4-(2-methylcyclopropane-carboxamido)phenyl)propanamido)-1H-indole-2-carboxylic acid]",–,43.33 µM
23.5 nM,23.5 nM,–,"NC[C@H]1CC[C@H](C(=O)NC(Cc2ccccc2)c2ncc(-c3ccc4c(N)n[nH]c4c3)[nH]2)CC1 (stereo partly shown) [Compound 4, reference compound]",–,3.79 µM
–,> 84500 nM,174 to 176 °C (dec.),"O=C(O)c1ccc(NC(=O)[C@H](Cc2ccccc2)NC(=O)c2cc(-c3ccc(Cl)cc3)[nH]n2)cc1 [Compound 7e, (S)-4-(2-(5-(4-Chlorophenyl)-1H-pyrazole-3-carboxamido)-3-phenylpropanamido)benzoic acid]",–,–
